Patent publication US11254958B1, “Metabolic engineering of E coli with thio-phosphate” (priority 2018, dated 2022)
Several values for one entry are separate records, joined by “and”; a condition that tells them apart may be missing. Equal entries are not always repeated.

Key:
Assay type in all cases: cell-based
[1] = system: E. coli K-12; test: RNA seq analysis of total RNA (FPKM); set-up: hisA transcript elevation / FabB transcript elevation / TesA transcript elevation / FabD transcript elevation / FabH transcript elevation / ftsI transcript elevation / idtC transcript elevation / idtB transcript elevation: unit not given here
Protocol: (§1) E coli K12 bacteria were grown in high citrate minimal media with 5.4 g/L of thiophosphate or 2.4 g/L of Na2HPO4 for up to 12 hrs. The use of high citrate media was chosen to help lower the total amount of thiophosphate needed for growth when compared to regular M9 media (1). The media is prepared as follows: thiophosphate, 5.4 g/L; KCL 1.5 g/L; (NH4)2SO4, 2 g/L; sodium citrate 2H2O, 10 g/L. Adjust the pH to 7.5 and sterile filter the solution. Then add the following: MgSO4-7H2O, 0.2 g/L (sterilized separately as a conc. solution); glucose, 2 g/L sterilized separately by filtration). Glucose can also be sterilized by autoclaving separately. CaCl2 (11 mg/L) is also be added as needed.
For RNA seq analysis the RNA library was prepared using Illumina's TruSeq Stranded mRNA library prep (Illumina, 2010) without selection. The sequencing platform was HiSeq 2500 with a read format of PE 2×150. The coverage was at least 40 million per sample without rRNA depletion. A custom software build (Omegabioservice) of rRNA and tRNA sequences for reference mapping was used to more rapidly map rRNA sequences and avoid compression.
To get some idea of the impact of RNA stabilization via thiophosphate on specific mRNAs, RNA seq results were analyzed as FPKM (fragments per kilobase pair million) out of all reads including rRNA. This study was designed to give an absolute comparison rather than a relative comparison of transcript levels in total RNA. For control cells a total of 43 million reads of 150 bp in length were analyzed while 73.9 million reads were used in thiophosphate treated samples. The reads were mapped to a reference genome, E. coli K-12 substr. MG1655. One of the first things noticed was that many genes were not detected in both treated and control samples. Some of these absences were undoubtedly due to the low coverage resulting from the presence of numerous ribosomal RNA sequences in the preparations. However, even some transcripts readily detected by microarray analysis were not present. Other transcripts were not assessed due to their high copy number and the need for protracted computational time to quantitate. The second thing that was most obvious when comparing the two samples was there were many changes both positive and negative in the levels of transcripts for different genes. The results pointed to significant transcriptional changes induced secondarily via the general stabilization of RNA in vivo with thiophosphate.

[2] = system: E coli K12 bacteria; test: Agilent analyzer profile of total RNA from control and thiophosphate treated cultures
Protocol: as §1
Total RNA was isolated using Bioline's ISOLATE II RNA mini kit. […] The rRNA ratio (23s/16s) was at least 1.6. Note small RNAs like SS RNA were not retained under the conditions used. For rRNA depleted preparations, Ribominus (Invitrogen) was then used to deplete 23S and 16S rRNA. The ribosomal depleted RNA was then concentrated with the kit's concentration module prior to gel analysis.
To further examine this idea, an Agilent analyzer was used to analyze the profiles of total RNA from control cultures and thiophosphate treated cultures (FIG. 1). It was evident that in E. coli, there was an increase in the non-ribosomal fraction, particularly between the […] and 23S ribosomal RNAs, which was even more evident in ribosomal RNA depleted samples (FIG. 1). Quantitative analysis indicated the fraction of 16S and 23S rRNA in the profile of total RNA was depleted in TP cultures relative to controls. […] This corresponds to a reduction of 8.8%. To estimate the fold increase in mRNA that could account for such a change, one needs to know the % of total RNA that is mRNA.

[3] = system: E. coli K12 and JM109 strains; test: Morphological changes by bright field microscopy; details: K12, semi-synthetic media

SMILES: OP(O)(O)=S [thio-phosphate]
- maximum decrease observed [1]: 1550 ×
- median fold change, transcripts for 18 of the most abundant proteins [1]: 1.55 × fold
- median fold decrease of decreased genes [1]: 2.4
- median fold increase of increased genes [1]: 2.75
- transcript level of the 2 out of 18 abundant-protein genes showing reduction [1]: 80 % of normal
- genes expressed at low levels showing negative fold changes in mRNA ([1]; 12 genes expressed at low levels): 58%
- transcripts showing negative fold changes, average stability mRNA class ([1]; 33 mRNAs, half-lives between 5-7 mins, platform not given): 30%
- transcripts showing negative fold changes, unstable mRNA class ([1]; 33 mRNAs, half-lives of 3 mins or less, platform not given): 36%
- transcripts showing negative fold changes, stable mRNA class ([1]; 33 mRNAs, half-lives of 11 mins or more, platform not given): 36%
- fold increase in total FPKM counts ([1]; 4,311 E. coli genes, vs controls): 1.37 × fold
- FabB transcript elevation ([1]; RNA seq): 98
- FabD transcript elevation ([1]; RNA seq): 3.1
- FabH transcript elevation ([1]; RNA seq): 10.5
- Leu A transcript fold reduction ([1]; RNA seq): ~500 × fold
- Leu C transcript fold reduction ([1]; RNA seq): ~500 × fold
- Leu D transcript fold reduction ([1]; RNA seq): ~500 × fold
- TesA transcript elevation ([1]; RNA seq): 3.5
- accA transcript elevation ([1]; RNA seq): 19.8 ×
- accC transcript elevation ([1]; RNA seq): 6.2 ×
- accD transcript elevation ([1]; RNA seq): 3.39 × and 3.4 ×
- adk transcript fold elevation ([1]; RNA seq): 3.4 × fold
- aidB transcript fold elevation ([1]; RNA seq): 4-6 × fold
- bacA transcript elevation ([1]; RNA seq): 12 ×
- cysK transcript reduction ([1]; RNA seq): SOX
- cysM transcript reduction ([1]; RNA seq): 292 ×
- ddlB transcript increase ([1]; RNA seq): 30 ×
- dusB transcript fold elevation ([1]; RNA seq): 1.18
- dxs transcript fold increase ([1]; RNA seq): 101
- hisA transcript elevation ([1]; RNA seq): 6.2
- hisB transcript elevation ([1]; RNA seq): 162 ×
- hisC transcript elevation ([1]; RNA seq): 117 ×
- hisD transcript elevation ([1]; RNA seq): 10.9 ×
- hisG transcript elevation ([1]; RNA seq): 4.6 ×
- hisH transcript elevation ([1]; RNA seq): 28 ×
- hisI transcript elevation ([1]; RNA seq): 5 ×
- idi transcript fold increase ([1]; RNA seq): 3.57
- infB transcript fold elevation ([1]; RNA seq): 3 × fold
- ispA transcript elevation ([1]; RNA seq): 154 ×
- ispD transcript fold increase ([1]; RNA seq): 2
- ispE transcript fold increase ([1]; RNA seq): 1.8
- ispF transcript fold increase ([1]; RNA seq): 2.6
- ispH transcript fold increase ([1]; RNA seq): 2.2
- katE transcript fold elevation ([1]; RNA seq): 4-6 × fold
- murC transcript increase ([1]; RNA seq): 26 ×
- murD transcript increase ([1]; RNA seq): 144 ×
- murE transcript increase ([1]; RNA seq): 152 ×
- murF transcript increase ([1]; RNA seq): 250 ×
- murG transcript increase ([1]; RNA seq): 199 ×
- otsA transcript fold elevation ([1]; RNA seq): 4-6 × fold
- prsA transcript elevation ([1]; RNA seq): < 2 ×
- pyrG transcript fold elevation ([1]; RNA seq): 2.1 × fold
- pyrH transcript fold elevation ([1]; RNA seq): 3.5 × fold
- rpoS transcript fold elevation ([1]; RNA seq): 2.3 × fold
- rsfs transcript fold decrease ([1]; RNA seq): 19 × fold
- trpA transcript elevation ([1]; RNA seq): 1049 ×
- trpB transcript elevation ([1]; RNA seq): 1955 ×
- trpC transcript elevation ([1]; RNA seq): 606 ×
- trpD transcript elevation ([1]; RNA seq): 443 ×
- trpE transcript elevation ([1]; RNA seq): 541 ×
- tryD transcript elevation ([1]; RNA seq): 443 ×
- ybaY transcript fold elevation ([1]; RNA seq): 4-6 × fold
- ycih transcript fold elevation ([1]; RNA seq): 8 × fold
- yqgf transcript elevation ([1]; RNA seq): 4.64 ×
- ftsI transcript elevation ([1]; RNA seq (value in parentheses)): 109
- idtB transcript elevation ([1]; RNA seq (value in parentheses)): 164
- idtC transcript elevation ([1]; RNA seq (value in parentheses)): 3.6
- tRNA synthetases average increase ([1]; RNA seq, 13 tRNA synthetases detected): 11.7 × fold
- CspA transcript fold increase ([1]; RNA seq, vs control): 1.6 × fold
- nusA transcript fold increase ([1]; RNA seq, vs control): 3 × fold
- average fold decrease of decreased genes ([1]; SD 93): 20.4
- average fold increase of increased genes ([1]; SD 291): 44 × fold
- fold increase in mRNA or non-ribosomal RNA ([1]; after correcting for expected control reading of 82% for rRNA): 2.75 × fold
- fraction of reads that were rRNA ([1]; custom build of E. coli rRNA sequences): 68.7%
- median positive fold change, average mRNA class ([1]; platform not given): 2.6 ×
- median positive fold change, stable mRNA class ([1]; platform not given): 2.7 ×
- median positive fold change, unstable mRNA class ([1]; platform not given): 1.6 ×
- ribD, ribB, ribE and ribF gene transcripts ([1]; platform not given): did not appear to be significantly elevated
- Nlpl fold decrease ([1]; printed as protein, platform not given): 32 × fold
- cdsA mRNA increase ([1]; value in parentheses (RNA seq)): 21 ×
- midpoint of the non-ribosomal RNA peak [2]: ~2,000 NT
- reduction of 16S and 23S rRNA fraction relative to controls [2]: 8.8%
- fold increase in mRNA or non-ribosomal RNA relative to ribosomal RNA ([2]; assuming mRNA is normally 2% of the total): 5.5 × fold
- 16S and 23S rRNA as fraction of total RNA ([2]; average of two replicates): 42.5%
- time by which filaments were detected [3]: ≤ 8 h
- time by which paired bacteria could be seen [3]: ≤ 2 h
